Where a SMILES comes first, the peptide text is derived from it. The star is where a group is joined. Tos = Cc1ccc(S(=O)(=O)*)cc1; CH2Cl = ClC*
Tests used:
[1] = test system: CNS-1 inoculated Lewis rats; assay: Survival study in CNS-1 GBM rat model; type: in vivo
Method: (§1) Adult Lewis rats (270–335 g, Harlan, Jerusalem, Israel) were housed in a standard conditions and fed a standard diet. Water was available ad libitum. Ambient temperature was set to 22°C to 23°C with day/night light control. The protocols of this study were approved by the Sheba Medical Center Committee on the Use and Care of Animals (permit No: 972/15) according to the ARRIVE Guidelines. Maximum efforts were made in order to minimize suffering and pain. The humane endpoints were the inability to rise or ambulate and a severe weight loss (20% of initial body weight).
(§2) The rats were anesthetized via IM injection of Ketamine-Xylazine (100 mg/kg, 16 mg/kg, respectively). A midline scalp incision was made, and a 1 mm burr hole was drilled (coordinates 1 mm lateral × 3 mm posterior to the Bregma). Tumor implantation was performed using a 30 gauge needle attached to a 25 μl syringe containing 10 μl of CNS-1 pellet 5 × 10^7cells/ml. The rats were positioned into a stereotactic frame in order to inject the cells at the right corpus striatum 5.5 mm deep in the brain tissue. […] The needle was gently pulled out 1 min after the pump was stopped. The burr hole was then sealed with bone wax and the skin was sutured.
The animals were implanted with osmotic pumps attached to brain infusion tube (Alzet, Cupertino, CA, USA). Implantation was performed 5 days after tumor inoculation. Two different types of osmotic pump were used: in the imaging study the pumps implanted released 1 μl/h for 7 days (model #2001), while in the survival study the pumps released 0.5 μl/h for 14 days (model #2002). The pumps were preloaded with either saline or SIXAC (in indicated concentrations). The pumps were primed in saline bath at 37°C for 24 h as a pre-implantation procedure and the function of each pump was reassured by assessing dripping. The Alzet pump was implanted subcutaneously, a catheter was placed intracranially thus releasing substances directly to the tumor core.
Rats were allocated to three groups. 1. Control group (n = 15) treated with alzet-pumps contain saline. 2. Moderate dose treated group (n = 16) treated with alzet-pump containing SIXAC (2μg/kg/day). 3. High dose treated group (n = 14) treated with alzet-pumps contain SIXAC (20μg/kg/day). Survival was registered daily and the brains were dissected immediately after death determination and were placed in 4% PFA and kept at 4°C. Upon MRI scanning the brains were moved to PBS containing tubes, scanning was performed and ROI were quantified.

[2] = test system: thrombin mediated PAR1 activation (pERK/ERK) in CNS-1 cells; assay: ERK activation (pERK/ERK, Western blot) in CNS-1 cells; type: cell-based, rat; settings: thrombin 1 U/ml + SIXAC 100 nM, 10 min; n = 3; thrombin alone 2.09 ± 0.28, p < 0.03
Method: Cells were seeded (1 × 10^6 cells/75 cm^2 flask) and incubated for 24 h. Then the medium was replaced by FCS-free medium for another 24 h. The cells were treated for 10 min with thrombin (1 U/ml), SIXAC (100 nM), a combination of thrombin and SIXAC or a FCS-free medium which was used as a control (n = 3 for each treatment). The cells were washed and lysed in RIPA buffer (containing in mM: 50 TRIS HCl pH 8, 150 NaCl, 1% NP-40, 0.5% sodium deoxycholate, and 0.1% SDS), a protease inhibitor cocktail (Merck Millipore 539134, 1:100), 0.1 mM sodium orthovanadate and 2 mM PMSF. The cells were scraped, collected and centrifuged (16,000g × 20 min) at 4°C. The supernatants were collected, and protein concentration was determined by means of a bicinchoninic acid (BCA) assay. Each sample (20 μg) was separated by SDS-polyacrylamide gel electrophoresis. The proteins were transferred onto nitrocellulose membranes. Membranes were incubated with mouse anti-phosphorylated Extracellular signal-Regulated Kinase (pERK) antibody (1:10,000, M8159, Sigma), for 1.5 h at room temperature (RT) and washed with Tris-buffered saline and 0.1% Tween 20 (TBST). Membranes were then incubated at RT with horseradish peroxidase-conjugated goat anti-mouse antibody (1:10,000, Jackson Immunoresearch Laboratories). […] Protein bands were detected by a peroxidase-based enhanced chemiluminescence (ECL) method. […]

[3] = test system: CNS-1 colonies; assay: Colony formation assay; type: cell-based, rat; settings: SIXAC 1 μM, 5 days; colonies > 1 mm; control 13.9 ± 1.09; p = 0.033
Method: The cells were seeded in 6-well plates at a density of 100 cells/well. After 24 h, fresh medium with 1 μM SIXAC was added. Cells were incubated for 5 days, until colonies were formed. Cells were washed with PBS, stained with […] crystal violet (Sigma-Aldrich, C0075) in absolute ethanol for 20 min and then washed again with PBS and dried for 24 h. Colonies that were bigger than 1 mm were counted using Fiji software ([37]–[40]).

[4] = test system: CNS-1 glioma in Lewis rats; assay: In-vivo imaging study (MRI) in CNS-1 GBM rat model
Method: as §1, §2
MRI was performed using a clinical interventional 1.5T MR system. The rats were anesthetized and Gd-based contrast agent was injected IP (Gd-DOTA, 0.02 mmol/kg, Dotarem, Guerbert). MRI sequences included contrast enhanced T1-weighted MRI for depiction of the tumor, T2-weighted MRI for depiction of edema and gradient-echo MRI for depiction of possible hemorrhages. The first MRI scan was used to rank the tumors into three categories based on the size evaluation in order to form groups with a similar distribution of initial tumor size. Regions of interest (ROIs) were plotted over enhanced T1 and T2 weighted MR images. The volume of the tumors, calculated from the T1-weighted images, was then subtracted from the enhancing volume, calculated from the T2-weighted images, in order to determine the volume of surrounding edema.
The animals were implanted with osmotic pumps attached to brain infusion tube (Alzet, Cupertino, CA, USA). Implantation was performed 5 days after tumor inoculation. […]
Rats were allocated to three groups. […] 7 days following induction of treatment (day 12) a follow-up MRI imaging (2nd) was performed and the size of the tumor and edema surrounding the tumor were analyzed by standard ROI manual techniques as described above. In order to eliminate the effect of initial tumor and edema sizes variance, the tumor and edema sizes increase were calculated by using the ratio of the 2nd MRI scan divided by the 1st MRI scan ([41], [42]).

## Cc1ccc(S(=O)(=O)N[C@@H](C)C(=O)N[C@H](C(=O)N[C@@H](CC(C)C)C(=O)N[C@@H](CC(=O)O)C(=O)N2CCC[C@H]2C(=O)N[C@@H](CCCNC(=N)N)C(=O)CCl)[C@@H](C)O)cc1 [SIXAC] (Tos-ATLDPR-CH2Cl)
[1]; 2μg/kg/day and 20μg/kg/day combined
  survival, combined SIXAC groups relative to controls (in words): robust effect of treatment
[1]; 2μg/kg/day, log-rank test, one tailed p = 0.01
  survival rate vs. saline, moderate dose (in words): significantly prolonged in comparison to the saline treated group
[1]; 20μg/kg/day, intracranial Alzet pump, 14 days, n = 14, control 16 days, log-rank one tailed p < 0.05
  median survival, high dose: 17 days
[1]; 20μg/kg/day, log-rank test, one tailed p < 0.05
  survival rate vs. saline, high dose (in words): less pronounced effect for the high dose group
[1]; saline, 2μg/kg/day, 20μg/kg/day, log-rank test for trend p = 0.030
  survival, trend over three groups (in words): significant trend of prolonged survival
[2]
  pERK/ERK ratio, thrombin with SIXAC: 0.99 ± 0.21
[3]
  number of formed colonies: 10.5 ± 1.06
[4]; 2μg/kg/day vs. 0.2μg/kg/day and saline
  tumor enhancement means of ratios, moderate dose vs. low dose and saline (in words): non-significant reduction in tumor enhancement means of ratios
[4]; 2μg/kg/day vs. 0.2μg/kg/day and saline, p < 0.05
  edema means of ratios, moderate dose vs. low dose and saline (in words): Significant reduction in edema means of ratios
[4]; 2μg/kg/day, intracranial Alzet pump, 7 days, day 12/day 5, n = 9, control 8.8 ± 1.9, p < 0.04 (t-test)
  edema volume ratio (2nd/1st MRI, T2): 4.9 ± 1
[4]; 2μg/kg/day, intracranial Alzet pump, 7 days, day 12/day 5, n = 9, control 12.2 ± 2.4, p = 0.16 (t-test)
  tumor volume ratio (2nd/1st MRI, enhancing lesions, T1): 9.8 ± 1.2
